The values that follow come from patent US20010047099A1, “4-aminopicolinates and their use as herbicides” (priority 2000, published 2001).

Format in all cases: in vivo
Assay [1] concerns chickweed (Stellaria media). Briefly: Postemergence herbicidal activity. The note with it: Table 1, visual, after 2 weeks. As for the experimental part:
(§1) Seeds of the desired test plant species were planted in Grace-Sierra MetroMix® 306 planting mixture, which typically has a pH of 6.0 to 6.8 and an organic matter content of about 30 percent, in plastic pots with a surface area of 64 square centimeters. When required to ensure good germination and healthy plants, a fungicide treatment and/or other chemical or physical treatment was applied. The plants were grown for 7-21 days in a greenhouse with an approximate 15 hr photoperiod which was maintained at about 23-29° C. during the day and 22-28° C. during the night. Nutrients and water were added on a regular basis and supplemental lighting was provided with overhead metal halide 1000-Watt lamps as necessary. The plants were employed for testing when they reached the first or second true leaf stage.
(§2) A weighed amount, determined by the highest rate to be tested, of each test compound was placed in a 20 mL glass vial and was dissolved in 4 mL of a 97:3 v/v (volume/volume) mixture of acetone and dimethyl sulfoxide (DMSO) to obtain concentrated stock solutions. […] The concentrated stock solutions obtained were diluted with an aqueous mixture containing acetone, water, isopropyl alcohol, DMSO, Atplus 411F crop oil concentrate, and Triton X-155 surfactant in a 48.5:39:10:1.5:1.0:0.02 v/v ratio to obtain spray solutions of known concentration. The solutions containing the highest concentration to be tested were prepared by diluting 2 mL aliquots of the stock solution with 13 mL of the mixture and lower concentrations were prepared by serial dilution of the stock solution. Approximately 1.5 mL aliquots of each solution of known concentration were sprayed evenly onto each of the test plant pots using a DeVilbiss atomizer driven by compressed air pressure of 2 to 4 psi ([…]) to obtain thorough coverage of each plant. Control plants were sprayed in the same manner with the aqueous mixture. In this test an application rate of 1 ppm results in the application of approximately 1 g/Ha.
(§3) The treated plants and control plants were placed in a greenhouse as described above and watered by sub-irrigation to prevent wash-off of the test compounds. After 2 weeks the condition of the test plants as compared with that of the untreated plants was determined visually and scored on a scale of 0 to 100 percent where 0 corresponds to no injury and 100 corresponds to complete kill.

For assay [2], the system named is cocklebur (Xanthium strumarium). Kind of assay: Postemergence herbicidal activity. The note with it: Table 1, visual, after 2 weeks. As for the experimental part: as §1, §2, §3
Assay [3] relates to wild buckwheat (Polygonum convolvulus). Kind of assay: Postemergence herbicidal activity. The note with it: Table 1, visual, after 2 weeks. As for the experimental part: as §1, §2, §3
Assay [4] relates to morningglory (Ipomoea hederacea). Briefly: Preemergence herbicidal activity. The note with it: Table 6 (headed Post-emergent; text: preemergence), after 3 weeks; for pest or weed control at 280 ppm: rate 280 ppm. An excerpt:
(§4) Seeds of the desired test plant species were planted in a soil matrix prepared by mixing a loam soil (43 percent silt, 19 percent clay, and 38 percent sand, with a pH of about 8.1 and an organic matter content of bout 1.5 percent) and sand in a 70 to 30 ratio. The soil matrix was contained in plastic pots with a surface area of 113 square centimeters. When required to ensure good germination and healthy plants. a fungicide treatment and/or other chemical or physical treatment was applied.
(§5) A weighed amount, determined by the highest rate to be tested, of each test compound was placed in a 20 mL glass vial and was dissolved in 4 mL of a 97:3 v/v (volume/volume) mixture of acetone and dimethyl sulfoxide to obtain concentrated stock solutions. […] The stock solutions obtained were diluted with a 99.9:0.1 mixture of water and Tween® […] surfactant to obtain application solutions of known concentration. The solutions containing the highest concentration to be tested were prepared by diluting 2 mL aliquots of the stock solution with 15 mL of the mixture and lower concentrations were prepared by serial dilution of the stock solution. A 2.5 mL aliquot of each solution of known concentration was sprayed evenly onto the soil surface (113 sq. cm) of each seeded pot using a Cornwall 5.0 mL glass syringe fitted with a TeeJet TN-3 hollow cone nozzle to obtain thorough coverage of the soil in each pot. Control pots were sprayed in the same manner with the aqueous mixture.
(§6) The treated pots and control pots were placed in a greenhouse maintained with an approximate 15 hr photoperiod and temperatures of about 23-29° C. during the day and 22-28° C. during the night. Nutrients and water were added on a regular basis and supplemental lighting was provided with overhead metal halide 1000-Watt lamps as necessary. The water was added by top-irrigation. After 3 weeks the condition of the test plants that germinated and grew as compared with that of the untreated plants that germinated and grew was determined visually and scored on a scale of 0 to 100 percent where 0 corresponds to no injury and 100 corresponds to complete kill or no germination.

For assay [5], the system named is pigweed (Amaranthus retroflexus). Briefly: Preemergence herbicidal activity. The note with it: Table 6 (headed Post-emergent; text: preemergence), after 3 weeks; for pest or weed control at 280 ppm: rate 280 ppm.
Text: as §4, §5, §6

The subject of assay [6] is velvetleaf (Abutilon theophrasti). Briefly: Preemergence herbicidal activity. The note with it: Table 6 (headed Post-emergent; text: preemergence), after 3 weeks; for pest or weed control at 280 ppm: rate 280 ppm.
Text: as §4, §5, §6

Where [7] appears, read: Ipomoea, 504 h, read-out: % Control IPOHE.
The mark [8] stands for this setting: Amaranthus retroflexus, 504 h, read-out: % Control AMARE.
Setting [9] is: Abutilon theophrasti, 504 h, read-out: % Control ABUTH.
Where [10] appears, read: Stellaria media, post-emergence, 336 h, rate 250 ppm, read-out: Post-emergent % Control STEME.
[11] abbreviates: Xanthium strumarium, post-emergence, 336 h, rate 250 ppm, read-out: Post-emergent % Control XANST.
[12] abbreviates: Fallopia convolvulus, post-emergence, 336 h, rate 250 ppm, read-out: Post-emergent % Control POLCO.

In the case of `CCCCOCCOC(=O)c1nc(Cl)cc(N)c1Cl` [Compound 10, butoxyethyl 4-amino-3,6-dichloropyridine-2-carboxylate], the pest or weed control at 125 ppm in assay [1] (Stellaria media, post-emergence, 336 h, rate 125 ppm, read-out: Post-emergent % Control STEME) was determined as 50%; in assay [2] (Xanthium strumarium, post-emergence, 336 h, rate 125 ppm, read-out: Post-emergent % Control XANST) it was 90%; in assay [3] (Fallopia convolvulus, post-emergence, 336 h, rate 125 ppm, read-out: Post-emergent % Control POLCO), 100%. For the same compound, the pest or weed control at 280 ppm in assay [4] (setting [7]), in assay [5] (setting [8]) and in assay [6] (setting [9]) was 100% throughout.
For the compound `COC(=O)c1nc(Cl)cc(NC(C)=O)c1Cl` [Compound 12, Methyl N-acetyl 4-amino-3,6-dichloropyridine-2-carboxylate], in assay [1] (rate 125 ppm), the “Post-emergent % Control STEME” value was determined as 30%. Further, the “Post-emergent % Control XANST” value in assay [2] (rate 125 ppm) is 90%. In addition, the “Post-emergent % Control POLCO” value in assay [3] (rate 125 ppm) was 100%. In addition, in assay [4] (rate 560 ppm), the “% Control IPOHE” value worked out at 100%. Further, in assay [5] (rate 560 ppm), the “% Control AMARE” value is 100%. Moreover, the “% Control ABUTH” value in assay [6] (rate 560 ppm) worked out at 95%.
On to `Nc1c(F)c(Br)nc(C(=O)O)c1F` [Compound 16, 4-Amino-3,5-difluoro-6-bromopyridine-2-carboxylic acid], for which the pest or weed control at 250 ppm in assay [1] (setting [10]) worked out at 30%; in assay [2] (setting [11]), 60%; in assay [3] (setting [12]), 70%. For the same compound, the pest or weed control at 560 ppm in assay [4] (Ipomoea, 504 h, rate 560 ppm, read-out: % Control IPOHE) was found to be 80%; in assay [5] (Amaranthus retroflexus, 504 h, rate 560 ppm, read-out: % Control AMARE), 70%; in assay [6] (Abutilon theophrasti, 504 h, rate 560 ppm, read-out: % Control ABUTH), 0%.
Regarding `COC(=O)c1nc(Br)c(Br)c(N)c1Br` [Compound 18, Methyl 4-amino-3,5,6-tribromopyridine-2-carboxylate], the pest or weed control at 250 ppm worked out at 90% in assay [1] (setting [10]), 85% in assay [2] (setting [11]) and 75% in assay [3] (setting [12]). In addition, the pest or weed control at 280 ppm in assay [4] (setting [7]) was found to be 30%; in assay [5] (setting [8]), 80%; in assay [6] (setting [9]), 98%.
For the compound `Nc1c(Cl)c(C(=O)O)nc(Cl)c1Sc1ccccc1` [Compound 24, 4-Amino-3,6-dichloro-5-phenylthiopyridine-2-carboxylate], the “Post-emergent % Control STEME” value in assay [1] (rate 250 ppm) stood at 50%. Further, the “Post-emergent % Control XANST” value in assay [2] (rate 250 ppm) worked out at 60%. Moreover, the “Post-emergent % Control POLCO” value in assay [3] (rate 250 ppm) came to 50%. For the same compound, the “% Control IPOHE” value in assay [4] (rate 560 ppm) was 30%. Also, the “% Control AMARE” value in assay [5] (rate 560 ppm) is 20%. For the same compound, in assay [6] (rate 560 ppm), the “% Control ABUTH” value is reported as 50%.
For `CC(C)Nc1cc(Cl)nc(C(=O)O)c1Cl` [Compound 28, 4-N-isopropylamino-3,6-dichloropyridine-2-carboxylic acid], in assay [1] (rate 250 ppm), the “Post-emergent % Control STEME” value was 90%. The “Post-emergent % Control XANST” value in assay [2] (rate 250 ppm) worked out at 95%. In assay [3] (rate 250 ppm), the “Post-emergent % Control POLCO” value was found to be 95%. In assay [4] (rate 560 ppm), the “% Control IPOHE” value is 100%. In addition, the “% Control AMARE” value in assay [5] (rate 560 ppm) is 100%. Moreover, the “% Control ABUTH” value in assay [6] (rate 560 ppm) came to 100%.
As to `C=CCNc1cc(Cl)nc(C(=O)O)c1Cl` [Compound 30, 4-N-allylamino-3,6-dichloropyridine-2-carboxylic acid], the “Post-emergent % Control STEME” value in assay [1] (rate 250 ppm) was found to be 80%. Moreover, the “Post-emergent % Control XANST” value in assay [2] (rate 250 ppm) stood at 100%. The “Post-emergent % Control POLCO” value in assay [3] (rate 250 ppm) came out at 100%. The “% Control IPOHE” value in assay [4] (rate 560 ppm) came to 85%. In addition, the “% Control AMARE” value in assay [5] (rate 560 ppm) is 90%. Besides, the “% Control ABUTH” value in assay [6] (rate 560 ppm) turned out to be 95%.
Take `O=C(O)c1nc(Cl)cc(NCCO)c1Cl` [Compound 31, 4-N-hydroxyethylamino-3,6-dichloropyridine-2-carboxylic acid]: the “Post-emergent % Control STEME” value in assay [1] (rate 250 ppm) is 30%. Also, in assay [2] (rate 250 ppm), the “Post-emergent % Control XANST” value came out at 40%. For the same compound, in assay [3] (rate 250 ppm), the “Post-emergent % Control POLCO” value is 70%. Also, the “% Control IPOHE” value in assay [4] (rate 560 ppm) came out at 100%. Moreover, the “% Control AMARE” value in assay [5] (rate 560 ppm) worked out at 95%. Moreover, the “% Control ABUTH” value in assay [6] (rate 560 ppm) was determined as 95%.
Turning to `COCCNc1cc(Cl)nc(C(=O)O)c1Cl` [Compound 32, 4-N-methoxyethylamino-3,6-dichloropyridine-2-carboxylic acid], the “Post-emergent % Control STEME” value in assay [1] (rate 250 ppm) was determined as 20%. In addition, in assay [2] (rate 250 ppm), the “Post-emergent % Control XANST” value was found to be 80%. Moreover, the “Post-emergent % Control POLCO” value in assay [3] (rate 250 ppm) was 100%. Moreover, in assay [4] (rate 560 ppm), the “% Control IPOHE” value is 90%. Also, the “% Control AMARE” value in assay [5] (rate 560 ppm) was 70%. For the same compound, the “% Control ABUTH” value in assay [6] (rate 560 ppm) turned out to be 90%.
Regarding `CN(O)c1cc(Cl)nc(C(=O)O)c1Cl` [Compound 34, 4-N-hydroxy-N-methyl-amino-3,6-dichloropyridine-2-carboxylic acid], the “Post-emergent % Control STEME” value in assay [1] (rate 125 ppm) was determined as 70%. Moreover, the “Post-emergent % Control XANST” value in assay [2] (rate 125 ppm) is listed as 100%. Further, in assay [3] (rate 125 ppm), the “Post-emergent % Control POLCO” value was 100%. The “% Control IPOHE” value in assay [4] (rate 560 ppm) stood at 95%. In addition, in assay [5] (rate 560 ppm), the “% Control AMARE” value is reported as 100%. The “% Control ABUTH” value in assay [6] (rate 560 ppm) is reported as 100%.
Consider `CON(C)c1cc(Cl)nc(C(=O)O)c1Cl` [Compound 35, 4-N-methoxy-N-methyl-3,6-dichloropyridine-2-carboxylic acid], for which the “Post-emergent % Control STEME” value in assay [1] (rate 125 ppm) is 60%. In addition, the “Post-emergent % Control XANST” value in assay [2] (rate 125 ppm) was determined as 90%. Also, the “Post-emergent % Control POLCO” value in assay [3] (rate 125 ppm) was 100%. Also, in assay [4] (rate 560 ppm), the “% Control IPOHE” value was 85%. For the same compound, in assay [5] (rate 560 ppm), the “% Control AMARE” value stood at 95%. Moreover, the “% Control ABUTH” value in assay [6] (rate 560 ppm) is 90%.
Regarding `O=C(O)c1nc(Cl)cc(-n2cccc2)c1Cl` [Compound 37, 4-pyrrolo-3,6-Dichloropyridine-2-carboxylic acid], the “Post-emergent % Control STEME” value in assay [1] (rate 125 ppm) is on record as 70%. Moreover, the “Post-emergent % Control XANST” value in assay [2] (rate 125 ppm) came out at 90%. In assay [3] (rate 125 ppm), the “Post-emergent % Control POLCO” value stood at 90%. Also, in assay [4] (rate 560 ppm), the “% Control IPOHE” value amounted to 95%. Also, the “% Control AMARE” value in assay [5] (rate 560 ppm) was determined as 100%. The “% Control ABUTH” value in assay [6] (rate 560 ppm) was 100%.
For `CN(C)C=Nc1cc(Cl)nc(C(=O)O)c1Cl` [Compound 40, 4-N,N-Dimethylformamidino-3,6-dichloropyridine-2-carboxylic acid], in assay [1] (rate 250 ppm), the “Post-emergent % Control STEME” value is 90%. Besides, the “Post-emergent % Control XANST” value in assay [2] (rate 250 ppm) came out at 100%. For the same compound, the “Post-emergent % Control POLCO” value in assay [3] (rate 250 ppm) is 100%. Moreover, the “% Control IPOHE” value in assay [4] (rate 560 ppm) is listed as 100%. The “% Control AMARE” value in assay [5] (rate 560 ppm) worked out at 100%. In assay [6] (rate 560 ppm), the “% Control ABUTH” value is on record as 100%.
